Tested on: lactating Holstein cows in sub-clinical ketosis
Test: Change of daily milk production after a single intravenous injection in lactating Holstein cows with sub-clinical ketosis
Assay type: in vivo
Text: Ten lactating Holstein cows in the immediate post-partum period of which milk production was 10-15% decreased in comparison with that of one week before the beginning of test due to sub-clinical ketosis were used. All cows were supplied with a complete feed for lactating cows composed of corn silage and concentrate containing grains, oil meals, animal proteins and vitamins/minerals. On the first day in the test, a solution containing 29 g of L-glutamine dissolved in 1 liter of distilled water for injection was injected into the cows through the cervical vein. The cows were then milked twice a day for one month, and the milk amount was measured. Ten lactating Holstein cows in sub-clinical ketosis were selected as negative controls according to the same criterion as in Example. On the first day in the test, 1 liter of saline was injected through the cervical vein as the negative control. On the other hand, nine lactating Holstein cows selected according to the same criterion as described above were used. On the first day in the test, 1 liter of a 25% dextrose solution was injected through the cervical vein as the positive control. Both the negative and positive controls were then supplied with the same complete feed as used in Example. The cows were then milked twice a day for one month, and the milk amount was measured. […] The X-axis indicates days after administration, and the Y-axis indicates the increment of the milk amount from that on the first day of the test. […] The increase of the milk amount was about 12 kg per day at maximum. […] Thus, the present invention can provide a novel method which is inexpensive and safe for preventing decrease of milk amount in mammals.

Question: With `NC(=O)CC[C@H](N)C(=O)O` [glutamine, L-glutamine] as the compound, how does the “milk amount increase on the average, from that on the first day of the test” value (single injection through the cervical vein on the first day (29 g L-glutamine in 1 liter, or 1 liter of 25% dextrose solution), milked twice a day for one month) read?
Answer: 7.6 kg per day

Question: And the “increase of the milk amount at maximum, from that on the first day of the test” value (single injection through the cervical vein on the first day (29 g L-glutamine in 1 liter, or 1 liter of 25% dextrose solution), milked twice a day for one month, FIG. 1)?
Answer: about 12 kg per day

Question: What about the “course of the change of the milk amount after administration” value (single injection through the cervical vein on the first day, followed for one month, FIG. 1) of the same compound?
Answer: increased immediately after administration, and this tendency lasted even one month after administration

From patent US20040010042A1, “Method for preventing decrease of breast milk amount in mammals” (Ajinomoto Co., Inc., priority 2002, published 2004)
